A word on the inhibition: it is the relative decrease from the control value, in per cent.

Experimental findings from patent US20250382266A1, “5-HT2A RECEPTOR LIGANDS” (Psilera Inc., priority 2022, published 2025) are described below.

The target of one experiment is 5-HT2A (Homo sapiens, UniProt P28223). As to the kind of experiment: radioligand binding at 5-HT2A. The note with it: 50 nM; radioligand [3H]ketanserin. The protocol:
(§1) In vitro pharmacological assessment of this compound (N-(2-(1H-indol-3-yl)ethyl)-2-(1H-indol-3-yl)-N-methylethan-1-amine) was performed using radioligand binding at various serotonergic and sigma receptors. The results appear in table 2 below

The next experiment has as its target T1, 5-HT2C (Homo sapiens, UniProt P28335).
T1 sequence (P28335 33-458): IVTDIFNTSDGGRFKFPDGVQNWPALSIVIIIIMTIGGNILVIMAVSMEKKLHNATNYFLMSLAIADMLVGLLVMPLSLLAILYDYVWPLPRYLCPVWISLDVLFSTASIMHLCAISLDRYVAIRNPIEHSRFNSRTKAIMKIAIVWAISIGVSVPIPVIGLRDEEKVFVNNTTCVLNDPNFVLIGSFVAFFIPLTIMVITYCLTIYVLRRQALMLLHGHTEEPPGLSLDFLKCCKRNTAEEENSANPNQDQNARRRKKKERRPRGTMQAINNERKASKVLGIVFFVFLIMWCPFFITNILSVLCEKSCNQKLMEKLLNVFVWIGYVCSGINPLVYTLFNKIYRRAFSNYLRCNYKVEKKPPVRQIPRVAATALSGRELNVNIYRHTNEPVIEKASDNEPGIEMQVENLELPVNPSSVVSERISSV
Nature of the experiment: radioligand binding at 5-HT2C. The note with it: 50 nM; radioligand [3H]mesulergine. The protocol:
as §1

In the next experiment the target is 5-HT2B (Homo sapiens, UniProt P41595). Nature of the experiment: radioligand binding at 5-HT2B. The note with it: 50 nM; radioligand [3H]mesulergine. The protocol:
as §1

Another experiment deals with 5-HT6 (Homo sapiens, UniProt P50406). As to the kind of experiment: radioligand binding at 5-HT6. To be noted: 50 nM; radioligand [3H]LSD. The protocol: as §1
The target of the next experiment is T2, 5-HT1A (Homo sapiens, UniProt P08908).
T2 sequence (P08908 1-422): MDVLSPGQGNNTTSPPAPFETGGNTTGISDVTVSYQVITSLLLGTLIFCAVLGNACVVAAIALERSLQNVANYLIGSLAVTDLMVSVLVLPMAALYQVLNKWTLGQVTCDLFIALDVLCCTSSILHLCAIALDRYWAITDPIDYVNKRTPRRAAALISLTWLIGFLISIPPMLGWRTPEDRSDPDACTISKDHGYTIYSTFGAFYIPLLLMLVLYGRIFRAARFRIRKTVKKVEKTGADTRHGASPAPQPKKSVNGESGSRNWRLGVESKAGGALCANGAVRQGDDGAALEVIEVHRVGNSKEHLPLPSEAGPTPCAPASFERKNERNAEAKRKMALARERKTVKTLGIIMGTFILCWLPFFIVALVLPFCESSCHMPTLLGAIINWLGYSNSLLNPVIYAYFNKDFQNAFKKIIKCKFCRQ
As to the kind of experiment: radioligand binding at 5-HT1A. To be noted: 50 nM; radioligand [3H]8-OH-DPAT. The protocol:
as §1

Another experiment deals with 5-HT7 (Homo sapiens, UniProt P34969). Nature of the experiment: radioligand binding at 5-HT7. The note with it: 50 nM; radioligand [3H]LSD. The protocol:
as §1

The target of another experiment is Sigma 2 (Homo sapiens, UniProt Q5BJF2). As to the kind of experiment: radioligand binding at Sigma 2. To be noted: 500 nM; radioligand [3H]DTG + (+)pentazocine. The protocol: as §1
In the next experiment the target is Sigma 1 (Homo sapiens, UniProt Q99720). As to the kind of experiment: radioligand binding at Sigma 1. To be noted: 500 nM; radioligand [3H](+)pentazocine. The protocol:
as §1

Sigma 1, sequence (Q99720 whole entry): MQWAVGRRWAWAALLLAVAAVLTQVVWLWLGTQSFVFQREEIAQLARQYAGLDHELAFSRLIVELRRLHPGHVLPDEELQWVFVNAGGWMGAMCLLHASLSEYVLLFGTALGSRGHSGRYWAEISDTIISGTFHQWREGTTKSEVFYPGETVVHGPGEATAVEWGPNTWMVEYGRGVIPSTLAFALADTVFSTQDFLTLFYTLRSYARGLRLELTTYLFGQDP
Sigma 2, sequence (Q5BJF2 whole entry): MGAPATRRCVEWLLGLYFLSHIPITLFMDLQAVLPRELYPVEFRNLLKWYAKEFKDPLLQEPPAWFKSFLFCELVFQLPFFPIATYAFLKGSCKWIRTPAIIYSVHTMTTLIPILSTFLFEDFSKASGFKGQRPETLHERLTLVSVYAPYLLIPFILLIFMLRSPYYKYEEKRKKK
5-HT6, sequence (P50406 whole entry, species assumed): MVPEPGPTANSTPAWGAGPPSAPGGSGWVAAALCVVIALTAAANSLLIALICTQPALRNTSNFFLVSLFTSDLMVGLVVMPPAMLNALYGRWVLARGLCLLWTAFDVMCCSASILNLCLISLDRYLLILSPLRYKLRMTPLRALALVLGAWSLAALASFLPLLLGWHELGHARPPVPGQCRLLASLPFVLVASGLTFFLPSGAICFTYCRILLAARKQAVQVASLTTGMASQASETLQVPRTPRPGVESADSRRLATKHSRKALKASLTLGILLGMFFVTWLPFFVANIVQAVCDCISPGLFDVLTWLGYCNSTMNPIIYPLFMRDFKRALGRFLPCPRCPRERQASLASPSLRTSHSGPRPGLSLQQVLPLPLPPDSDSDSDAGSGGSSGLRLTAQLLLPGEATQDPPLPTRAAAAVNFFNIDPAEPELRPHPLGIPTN
5-HT2B, sequence (P41595 whole entry, species assumed): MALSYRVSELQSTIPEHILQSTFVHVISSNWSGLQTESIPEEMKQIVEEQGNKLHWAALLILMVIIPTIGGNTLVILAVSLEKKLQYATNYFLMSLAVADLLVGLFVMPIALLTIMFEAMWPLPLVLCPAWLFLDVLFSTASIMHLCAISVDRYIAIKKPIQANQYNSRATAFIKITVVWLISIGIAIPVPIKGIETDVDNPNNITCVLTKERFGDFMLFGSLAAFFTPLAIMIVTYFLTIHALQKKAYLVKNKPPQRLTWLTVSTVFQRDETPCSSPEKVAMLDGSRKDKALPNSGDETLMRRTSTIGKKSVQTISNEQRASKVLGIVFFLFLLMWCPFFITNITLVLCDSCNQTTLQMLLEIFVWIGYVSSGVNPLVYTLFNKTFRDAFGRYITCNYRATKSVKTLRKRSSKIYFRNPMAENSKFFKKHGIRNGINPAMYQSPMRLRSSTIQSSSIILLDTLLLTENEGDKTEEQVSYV
5-HT2A, sequence (P28223 whole entry): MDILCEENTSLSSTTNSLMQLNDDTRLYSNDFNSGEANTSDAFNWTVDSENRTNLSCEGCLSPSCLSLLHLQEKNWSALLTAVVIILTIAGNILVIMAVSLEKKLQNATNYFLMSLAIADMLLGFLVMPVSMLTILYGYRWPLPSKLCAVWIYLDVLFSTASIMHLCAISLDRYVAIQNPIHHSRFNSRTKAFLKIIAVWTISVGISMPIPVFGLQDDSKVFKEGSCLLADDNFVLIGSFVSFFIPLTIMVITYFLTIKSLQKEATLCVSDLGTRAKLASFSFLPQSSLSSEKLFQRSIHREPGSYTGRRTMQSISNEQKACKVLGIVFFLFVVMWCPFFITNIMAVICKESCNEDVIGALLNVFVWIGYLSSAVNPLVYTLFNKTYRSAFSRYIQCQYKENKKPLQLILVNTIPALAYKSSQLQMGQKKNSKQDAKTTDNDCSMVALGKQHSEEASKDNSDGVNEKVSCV
5-HT7, sequence (P34969 whole entry, species assumed): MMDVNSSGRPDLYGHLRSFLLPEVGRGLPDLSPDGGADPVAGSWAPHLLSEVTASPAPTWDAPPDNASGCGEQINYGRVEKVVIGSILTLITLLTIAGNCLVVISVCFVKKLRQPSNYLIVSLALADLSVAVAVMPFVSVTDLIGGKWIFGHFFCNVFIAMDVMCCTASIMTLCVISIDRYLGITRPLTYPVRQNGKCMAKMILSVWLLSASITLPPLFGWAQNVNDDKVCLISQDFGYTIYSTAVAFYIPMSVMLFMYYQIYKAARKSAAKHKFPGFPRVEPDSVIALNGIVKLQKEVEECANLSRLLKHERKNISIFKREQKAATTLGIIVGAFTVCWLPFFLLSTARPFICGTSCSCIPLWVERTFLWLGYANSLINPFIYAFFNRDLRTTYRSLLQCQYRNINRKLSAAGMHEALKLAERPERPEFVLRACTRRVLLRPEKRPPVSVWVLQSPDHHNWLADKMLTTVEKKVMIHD

Consider `CN(CCc1c[nH]c2ccccc12)CCc1c[nH]c2ccccc12` [Example 1, N-(2-(1H-indol-3-yl)ethyl)-2-(1H-indol-3-yl)-N-methylethan-1-amine], for which the inhibition at 0.05 µM on 5-HT2A was 82.7%; on 5-HT2C, 72.8%; on 5-HT2B, 96.8%; on 5-HT6, 26.3%; on 5-HT1A, 70.9%; at 5-HT7, 79.7%. The inhibition at 0.5 µM was 26.1% on Sigma 2 and 21.7% on Sigma 1.
